Source: ChEMBL document CHEMBL3112408, “1,2,3-triazole-, arylamino- and thio-substituted 1,4-naphthoquinones: potent antitumor activity, electrochemical aspects, and bioisosteric replacement of C-ring-modified lapachones” (Bioorg Med Chem, 2014)

Key:
[1] = Cytotoxicity against human HCT8 cells assessed as cell viability after 72 hrs by MTT assay; assay type: functional, cell-based; settings: HCT-8, 72 h
OVCAR-8 = experiment: Cytotoxicity against human OVCAR8 cells assessed as cell viability after 72 hrs by MTT assay; assay type: functional, cell-based; settings: OVCAR-8, 72 h
MCF7 = experiment: Cytotoxicity against human MCF7 cells assessed as cell viability after 72 hrs by MTT assay; assay type: functional, cell-based; settings: MCF7, 72 h
PC-3 = experiment: Cytotoxicity against human PC3 cells assessed as cell viability after 72 hrs by MTT assay; assay type: functional, cell-based; settings: PC-3, 72 h
HL-60 = experiment: Cytotoxicity against human HL60 cells assessed as cell viability after 72 hrs by MTT assay; assay type: functional, cell-based; settings: HL-60, 72 h
PBMC = experiment: Cytotoxicity against human PBMC assessed as cell viability after 72 hrs by MTT assay; assay type: cell-based
DU-145 = experiment: Cytotoxicity against human DU145 cells assessed as cell viability after 72 hrs by MTT assay; assay type: functional, cell-based; settings: DU-145, 72 h
MX1 = experiment: Cytotoxicity against human MX1 cells assessed as cell viability after 72 hrs by MTT assay; assay type: functional, cell-based; settings: MX1, 72 h
SF-295 = experiment: Cytotoxicity against human SF295 cells assessed as cell viability after 72 hrs by MTT assay; assay type: functional, cell-based; settings: SF-295, 72 h
L929 = experiment: Cytotoxicity against mouse L929 cells assessed as cell viability after 72 hrs by MTT assay; assay type: ADME, cell-based; settings: L929, 72 h
[2] = Cytotoxicity against human Hs578T cells assessed as cell viability after 72 hrs by MTT assay; assay type: functional, cell-based; settings: Hs-578T
HCT-116 = experiment: Cytotoxicity against human HCT116 cells assessed as cell viability after 72 hrs by MTT assay; assay type: functional, cell-based; settings: HCT-116, 72 h
V79 = experiment: Cytotoxicity against chinese hamster V79 cells assessed as cell viability after 72 hrs by MTT assay; assay type: cell-based; settings: Cricetulus griseus, V79, 72 h
MDA-MB-435 = experiment: Cytotoxicity against human MDA-MB-435 cells assessed as cell viability after 72 hrs by MTT assay; assay type: functional, cell-based; settings: MDA-MB-435, 72 h

Row | Compound | IC50 [1] [µM] | IC50 (OVCAR-8) [µM] | IC50 (MCF7) [µM] | IC50 (PC-3) [µM] | IC50 (HL-60) [µM] | IC50 (PBMC) [µM] | IC50 (DU-145) [µM] | IC50 (MX1) [µM] | IC50 (SF-295) [µM] | IC50 (L929) [µM] | IC50 [2] [µM] | IC50 (HCT-116) [µM] | IC50 (V79) [µM] | IC50 (MDA-MB-435) [µM]
1 | CC1(C)CC(n2cc(C3CCCCC3)nn2)C2=C(O1)C(=O)c1ccccc1C2=O (stereo not drawn) | 12.3 | 15.1 | > 12 | 11.2 | 10.4 | > 12 | 11.7 | > 12 | 11.3 | 12.5 | 10.9 | 10.5 | 12 | 10.7
2 | CCCCCc1cn(C2CC(C)(C)OC3=C2C(=O)c2ccccc2C3=O)nn1 (stereo not drawn) | 4.45 | 6.67 | 3.16 | 3.66 | 1.37 | 7.77 | 2.48 | 2.4 | 2.77 | 4.98 | 3.08 | 4.93 | 5.59 | 2.77
3 | CCC(C)(O)c1cn(C2CC(C)(C)OC3=C2C(=O)c2ccccc2C3=O)nn1 (stereo not drawn) | 2.73 | 4.77 | 3.12 | 3.07 | 2.12 | 4.77 | 3.36 | 3.41 | 4.22 | 3.85 | 3.04 | 3.2 | 4.06 | 2.1
4 | CC1(C)OC2=C(C(=O)c3ccccc3C2=O)C1n1cc(-c2ccccc2)nn1 (stereo not drawn) | 9.07 | 7.22 | 6.95 | 5.82 | 4.34 | 8.02 | 4.68 | 5.92 | 3.44 | 8.4 | 5.76 | 8.27 | 7.62 | 4.95
5 | CCCCCCc1cn(C2C3=C(OC2(C)C)C(=O)c2ccccc2C3=O)nn1 (stereo not drawn) | 5.32 | 5.35 | 9.41 | 10.2 | 1.9 | 9.01 | 9.88 | 7.33 | 11.2 | 8.3 | 8.28 | 4.88 | 7.22 | 3.98
6 | CC1(C)OC2=C(C(=O)c3ccccc3C2=O)C1n1cc(C2CCCCC2)nn1 (stereo not drawn) | 6.7 | 5.38 | 5.78 | 4.29 | 2.7 | 7.36 | 5.48 | 4.21 | 3.18 | 6.62 | 4.95 | 5.51 | 6.12 | 2.76
7 | O=C1C=C(NCc2cn(CN3C(=O)c4ccccc4C3=O)nn2)C(=O)c2ccccc21 | > 12 | > 12 | > 12 | > 12 | > 12 | > 12 | > 12 | > 12 | > 12 | > 12 | > 12 | > 12 | > 12 | > 12
8 | O=C1C=C(NCc2cn(CCN3C(=O)c4ccccc4C3=O)nn2)C(=O)c2ccccc21 | > 11 | > 11 | > 11 | > 11 | > 11 | > 11 | > 11 | > 11 | > 11 | > 11 | > 11 | > 11 | > 11 | > 11
9 | O=C1C=C(NCc2cn(CCCN3C(=O)c4ccccc4C3=O)nn2)C(=O)c2ccccc21 | > 11 | > 11 | > 11 | > 11 | > 11 | > 11 | > 11 | > 11 | > 11 | > 11 | > 11 | > 11 | > 11 | > 11
10 | O=C1C=C(NCc2cn(CCCCN3C(=O)c4ccccc4C3=O)nn2)C(=O)c2ccccc21 | > 10 | > 10 | > 10 | > 10 | > 10 | > 10 | > 10 | > 10 | > 10 | > 10 | > 10 | > 10 | > 10 | > 10
11 | O=C1C(Cl)=C(NCc2cn(CN3C(=O)c4ccccc4C3=O)nn2)C(=O)c2ccccc21 | > 11 | > 11 | > 11 | > 11 | > 11 | > 11 | > 11 | > 11 | > 11 | > 11 | > 11 | > 11 | > 11 | > 11
12 | O=C1C(Cl)=C(NCc2cn(CCN3C(=O)c4ccccc4C3=O)nn2)C(=O)c2ccccc21 | > 10 | > 10 | > 10 | > 10 | > 10 | > 10 | > 10 | > 10 | > 10 | > 10 | > 10 | > 10 | > 10 | > 10
13 | O=C1C(Cl)=C(NCc2cn(CCCN3C(=O)c4ccccc4C3=O)nn2)C(=O)c2ccccc21 | > 10 | > 10 | > 10 | > 10 | > 10 | > 10 | > 10 | > 10 | > 10 | > 10 | > 10 | > 10 | > 10 | > 10
14 | O=C1C(Br)=C(NCc2cn(CN3C(=O)c4ccccc4C3=O)nn2)C(=O)c2ccccc21 | > 10 | > 10 | > 10 | > 10 | > 10 | > 10 | > 10 | > 10 | > 10 | > 10 | > 10 | > 10 | > 10 | > 10
15 | O=C1C(Br)=C(NCc2cn(CCN3C(=O)c4ccccc4C3=O)nn2)C(=O)c2ccccc21 | > 9 | > 9 | > 9 | > 9 | > 9 | > 9 | > 9 | > 9 | > 9 | > 9 | > 9 | > 9 | > 9 | > 9
16 | O=C1C(Cl)=C(NCc2cn(CCCCN3C(=O)c4ccccc4C3=O)nn2)C(=O)c2ccccc21 | > 10 | > 10 | > 10 | > 10 | > 10 | > 10 | > 10 | > 10 | > 10 | > 10 | > 10 | > 10 | > 10 | > 10
17 | CC(=O)OC[C@H]1OC(n2cc(CNC3=CC(=O)c4ccccc4C3=O)nn2)[C@H](OC(C)=O)[C@@H](OC(C)=O)[C@@H]1OC(C)=O (single isomer, unassigned) | > 8 | > 8 | > 8 | > 8 | > 8 | > 8 | > 8 | > 8 | > 8 | > 8 | > 8 | > 8 | > 8 | > 8
